Source: PubChem BioAssay AID256 (DTP/NCI, 2004)
Toxic doses and inconclusive results are not listed.

Test system: CD2F1 mice, L1210 leukemia ip, survival T/C
Test: NCI In Vivo Anticancer Drug Screen. Data for tumor model L1210 Leukemia (intraperitoneal) in CD2F1 (CDF1) mice
Conditions: higher = longer survival
Method in brief: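 Compound-dosed mice with transplantable tumor versus matched vehicle controls; endpoint ratio T/C reported.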

## C(OC[C@H]1CC[C@@H](COCC2CO2)O1)C1CO1 (some centres undefined)
endpoint: mean survival time, dose: 65.0 mg/kg/injection, schedule: Q01DX009 (ip), vehicle: saline
  T/C: 107 % of control
endpoint: mean survival time, dose: 108.0 mg/kg/injection, schedule: Q01DX009 (ip), vehicle: saline
  T/C: 112 % of control
endpoint: mean survival time, dose: 178.0 mg/kg/injection, schedule: Q01DX001 (ip), vehicle: saline
  T/C: 100 % of control
endpoint: mean survival time, dose: 180.0 mg/kg/injection, schedule: Q01DX009 (ip), vehicle: saline
  T/C: 124 % of control
endpoint: mean survival time, dose: 267.0 mg/kg/injection, schedule: Q01DX001 (ip), vehicle: saline
  T/C: 103 % of control
endpoint: mean survival time, dose: 400.0 mg/kg/injection, schedule: Q01DX001 (ip), vehicle: saline
  T/C: 109 % of control
endpoint: mean survival time, dose: 600.0 mg/kg/injection, schedule: Q01DX001 (ip), vehicle: saline
  T/C: 121 % of control

## COc1ccc(/C=N/NC(=O)CNC(=O)Nc2cccc([N+](=O)[O-])c2)cc1
endpoint: mean survival time, dose: 50.0 mg/kg/injection, schedule: Q01DX009 (ip), vehicle: saline with Tween-80
  T/C: 89 % of control
endpoint: mean survival time, dose: 100.0 mg/kg/injection, schedule: Q01DX009 (ip), vehicle: saline with Tween-80
  T/C: 93 % of control
endpoint: mean survival time, dose: 200.0 mg/kg/injection, schedule: Q01DX009 (ip), vehicle: saline with Tween-80
  T/C: 93 % of control

## CC(C)([NH-])C[NH-].O=C(O)CCO.[Pt+2]
endpoint: median survival time, dose: 20.0 mg/kg/injection, schedule: Q04DX003 (ip), vehicle: saline
  T/C: 255 % of control
endpoint: median survival time, dose: 20.0 mg/kg/injection, schedule: Q04DX003 (ip), vehicle: water
  T/C: 173 % of control
endpoint: median survival time, dose: 40.0 mg/kg/injection, schedule: Q04DX003 (ip), vehicle: saline
  T/C: 232 % of control
endpoint: median survival time, dose: 40.0 mg/kg/injection, schedule: Q04DX003 (ip), vehicle: water
  T/C: 170 % of control
endpoint: median survival time, dose: 80.0 mg/kg/injection, schedule: Q04DX003 (ip), vehicle: saline
  T/C: 116 % of control
endpoint: median survival time, dose: 80.0 mg/kg/injection, schedule: Q04DX003 (ip), vehicle: water
  T/C: 90 % of control

## COc1ccc(-c2nnc(-c3ccc(OC)c(Cl)c3)nn2)cc1Cl
endpoint: mean survival time, dose: 100.0 mg/kg/injection, schedule: Q04DX003 (ip), vehicle: saline with Tween-80
  T/C: 93 % of control
endpoint: mean survival time, dose: 200.0 mg/kg/injection, schedule: Q04DX003 (ip), vehicle: saline with Tween-80
  T/C: 86 % of control

## Nc1nc2c(ncn2-c2cccc(NC(=O)Nc3ccc(S(=O)(=O)F)cc3)c2)c(=O)[nH]1 (tested in a mixture with another compound)
endpoint: mean survival time, dose: 100.0 mg/kg/injection, schedule: Q04DX002 (ip), vehicle: saline with Tween-80
  T/C: 94 % of control
endpoint: mean survival time, dose: 200.0 mg/kg/injection, schedule: Q04DX002 (ip), vehicle: saline with Tween-80
  T/C: 105 % of control
endpoint: mean survival time, dose: 400.0 mg/kg/injection, schedule: Q04DX002 (ip), vehicle: saline with Tween-80
  T/C: 86 % of control

## O=C1O/C(=C\c2ccccc2)C(O)=C1c1ccccc1
endpoint: mean survival time, dose: 25.0 mg/kg/injection, schedule: Q01DX001 (ip), vehicle: saline with Tween-80
  T/C: 102 % of control
endpoint: mean survival time, dose: 50.0 mg/kg/injection, schedule: Q01DX001 (ip), vehicle: saline with Tween-80
  T/C: 98 % of control
endpoint: mean survival time, dose: 100.0 mg/kg/injection, schedule: Q01DX001 (ip), vehicle: saline with Tween-80
  T/C: 102 % of control

## CCCCCCC(Sc1nn(C2OC(COC(=O)c3ccccc3)C(OC(=O)c3ccccc3)C2OC(=O)c2ccccc2)c(=O)[nH]c1=O)C(=O)OCC (centres undefined)
endpoint: mean survival time, dose: 12.5 mg/kg/injection, schedule: Q01DX005 (ip), vehicle: distilled water + Tween-80
  T/C: 100 % of control
endpoint: mean survival time, dose: 25.0 mg/kg/injection, schedule: Q01DX005 (ip), vehicle: distilled water + Tween-80
  T/C: 100 % of control
endpoint: mean survival time, dose: 50.0 mg/kg/injection, schedule: Q01DX005 (ip), vehicle: distilled water + Tween-80
  T/C: 94 % of control
endpoint: mean survival time, dose: 100.0 mg/kg/injection, schedule: Q01DX005 (ip), vehicle: distilled water + Tween-80
  T/C: 95 % of control
endpoint: mean survival time, dose: 200.0 mg/kg/injection, schedule: Q01DX005 (ip), vehicle: distilled water + Tween-80
  T/C: 94 % of control

## COc1cc2c(c(OC)c1OC)-c1ccc(SC)c(=O)cc1[C@@H](NC1OC(COC(C)=O)C(OC(C)=O)C(OC(C)=O)C1OC(C)=O)CC2 (some centres undefined)
endpoint: mean survival time, dose: 1.5 mg/kg/injection, schedule: Q01DX009 (ip), vehicle: other
  T/C: 97 % of control
endpoint: mean survival time, dose: 3.0 mg/kg/injection, schedule: Q01DX009 (ip), vehicle: other
  T/C: 97 % of control
endpoint: mean survival time, dose: 6.0 mg/kg/injection, schedule: Q01DX009 (ip), vehicle: other
  T/C: 97 % of control
endpoint: mean survival time, dose: 12.0 mg/kg/injection, schedule: Q01DX009 (ip), vehicle: other
  T/C: 96 % of control
endpoint: mean survival time, dose: 24.0 mg/kg/injection, schedule: Q01DX009 (ip), vehicle: other
  T/C: 96 % of control

## C=CC1=CC(=O)OC1=O
endpoint: mean survival time, dose: 1.25 mg/kg/injection, schedule: Q01DX001 (ip), vehicle: saline
  T/C: 91 % of control
endpoint: mean survival time, dose: 2.5 mg/kg/injection, schedule: Q01DX001 (ip), vehicle: saline
  T/C: 88 % of control
endpoint: mean survival time, dose: 5.0 mg/kg/injection, schedule: Q01DX001 (ip), vehicle: saline
  T/C: 89 % of control
endpoint: mean survival time, dose: 10.0 mg/kg/injection, schedule: Q01DX001 (ip), vehicle: saline
  T/C: 89 % of control

## Cc1nc2ccc(CCN3CCN(c4ccccc4Cl)CC3)cc2[nH]1
endpoint: mean survival time, dose: 50.0 mg/kg/injection, schedule: Q04DX003 (ip), vehicle: Klucel (hydroxypropylcellulose) (HPC)
  T/C: 112 % of control
